In patent US20150322083A1, “(THIENO[2,3-b][1,5]BENZOXAZEPIN-4-YL)PIPERAZIN-1-YL COMPOUNDS AS SELECTIVE 5-HT2A INVERSE AGONISTS” (Eli Lilly and Company, priority 2014, published 2015):
pEC50, pKi: −log10 of the molar value.

Assays:
[1] = molecular target: T1, recombinant 5-HT2C receptors (human) (Homo sapiens, UniProt P28335); experiment: 5-HT2C competition binding assay ([125I]-(±)DOI, SPA)
T1 construct: expressed in transfected cells
Protocol: [^125I]-(±)DOI binding experiments are carried out in SPA 96-well format. Membranes used in this assay are prepared from AV-12 cells stably expressing recombinant 5-HT2C receptors (human). The incubation is initiated by the addition of a mixture of WGA PVT SPA beads (0.5 mg/well, Perkin Elmer (MA, USA), RPNQ0001) and 2.5 μg membranes to assay buffer (50 mM Tris-HCl, 10 mM MgCl2, 0.5 mM EDTA, 10 μM pargyline, 0.1% ascorbic acid, pH7.4) containing 0.2 nM [[^125I]-(±)DOI and varying concentrations of the test compound (10 point concentration response curves). Non-specific binding is determined in the presence of 20 μM 1-(1-naphthyl)piperazine. Samples are incubated for 4 hr. at room temperature (22° C.) and then read in a microplate scintillation counter.
Curves are evaluated using a 4-parameter logistic nonlinear equation to obtain the concentration of competitor causing 50% inhibition of radioligand binding (IC50). Equilibrium dissociation constants (Ki) are calculated according to the equation Ki=IC50/(1+L/Kd), where L equals the concentration of radioligand used in the experiment and Kd equals the equilibrium dissociation constant of the radioligand for the receptor, determined from standard saturation analysis or homologous competition experiments. […]

[2] = molecular target: recombinant human 5-HT2A receptor (Homo sapiens, UniProt P28223); experiment: 5-HT2A inverse agonism, [35S]GTPγS binding to AV12 membranes (human receptor); type: biochemical; set-up: expressed in transfected cells; host or cells: AV12 cells, membranes
Protocol: The inverse agonist activity of compounds of the present invention may be determined by literature recognized assay methods measuring [^35S]GTPγS binding to membranes transfected with 5-HT2A receptors in an in vitro activity assay essentially as described below.
Membranes are prepared from frozen pellets of whole AV12 cells expressing the human or rat 5-HT2A receptor. Cells are thawed on ice and homogenized in homogenization buffer (50 mM Tris-HCl, 0.5 mM EDTA, 1 tablet/100 mL of complete EDTA free protease inhibitor tablets (Roche Cat. No. 05 056 489 001), pH=7.4) with 20 strokes of a teflon-glass homogenizer attached to a motorized overhead stirrer. Centrifuge membranes at 1000 rpm (aprox. 150×g) for 15 min. at 4° C. […] The final supernatant is discarded and the pellet is resuspended in homogenization buffer and its protein content is determined by the method of Bradford using BSA as the standard. […]
Test compound is prepared from a 10 mM DMSO stock solution by serial dilution to provide a 10 point concentration response curve, with a final 1% DMSO concentration when added to the assay mixture. […] This mixture is incubated for 3 hr. with constant shaking at room temperature, centrifuged at 300 rpm for 1 min. with no brake and incubated for 3 more hr. before reading in a microplate scintillation counter.

Dopamine Transporter = Dopamine Transporter (Homo sapiens, UniProt Q01959); experiment: Dopamine transporter binding
Protocol: (§1) Curves are evaluated using a 4-parameter logistic nonlinear equation to obtain the concentration of competitor causing 50% inhibition of radioligand binding (IC50). Equilibrium dissociation constants (Ki) are calculated according to the equation Ki=IC50/(1+L/Kd), where L equals the concentration of radioligand used in the experiment and Kd equals the equilibrium dissociation constant of the radioligand for the receptor, determined from standard saturation analysis or homologous competition experiments. Reported values for Ki, where n values are indicated, are shown as geometric mean±the standard error of the mean (SEM), with the number of replicate determinations indicated by n. Geometric means are calculated by the equation GeoMean=10̂(Average(log Ki 1+log Ki 2+ . . . log Ki n)/[…]).
(§2) Further, the compounds of the invention may be tested in binding assays and functional activity assays by well known methods for other physiologically important receptors such as, but not limited to, the hERG channel, other serotonin receptors (specifically 5-HT1B receptors, lack of agonist activity at 5-HT2B receptors, 5-HT2C, 5-HT5, 5-HT6, and 5-HT7 receptors), dopaminergic receptors (specifically D1, D2, and D3), H1 receptors, GABAA receptors, adrenergic receptors and monoamine transporters.

Dopamine D1 = Dopamine D1 (Homo sapiens, UniProt P21728); experiment: Dopamine D1 binding
Protocol: as §1, §2

Chain of recombinant human 5-HT2A receptor (P28223 whole entry): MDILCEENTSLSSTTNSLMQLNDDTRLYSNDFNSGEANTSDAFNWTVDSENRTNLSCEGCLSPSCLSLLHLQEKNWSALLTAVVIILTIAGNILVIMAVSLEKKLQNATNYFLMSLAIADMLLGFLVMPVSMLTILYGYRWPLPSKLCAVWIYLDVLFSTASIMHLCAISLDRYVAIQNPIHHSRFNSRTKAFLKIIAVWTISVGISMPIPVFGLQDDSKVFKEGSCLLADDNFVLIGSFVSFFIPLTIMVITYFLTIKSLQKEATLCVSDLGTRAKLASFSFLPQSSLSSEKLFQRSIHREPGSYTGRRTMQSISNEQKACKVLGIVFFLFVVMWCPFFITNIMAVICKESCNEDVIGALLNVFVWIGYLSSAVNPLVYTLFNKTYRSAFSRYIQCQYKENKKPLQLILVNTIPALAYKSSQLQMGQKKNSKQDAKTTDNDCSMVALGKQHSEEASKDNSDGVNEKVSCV
Chain of Dopamine D1 (P21728 whole entry): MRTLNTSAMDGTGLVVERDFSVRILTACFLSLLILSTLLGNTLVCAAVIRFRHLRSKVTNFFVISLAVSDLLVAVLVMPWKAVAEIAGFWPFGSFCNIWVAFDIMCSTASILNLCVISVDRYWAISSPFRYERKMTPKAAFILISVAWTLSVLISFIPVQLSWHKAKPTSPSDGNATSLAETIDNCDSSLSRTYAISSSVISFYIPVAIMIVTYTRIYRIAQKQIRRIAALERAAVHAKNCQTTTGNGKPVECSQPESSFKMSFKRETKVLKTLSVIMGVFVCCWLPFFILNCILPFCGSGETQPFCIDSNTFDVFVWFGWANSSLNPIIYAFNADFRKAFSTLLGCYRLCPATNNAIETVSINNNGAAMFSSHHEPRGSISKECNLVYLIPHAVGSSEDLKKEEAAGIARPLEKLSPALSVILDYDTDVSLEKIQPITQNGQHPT
T1 sequence (P28335 33-458): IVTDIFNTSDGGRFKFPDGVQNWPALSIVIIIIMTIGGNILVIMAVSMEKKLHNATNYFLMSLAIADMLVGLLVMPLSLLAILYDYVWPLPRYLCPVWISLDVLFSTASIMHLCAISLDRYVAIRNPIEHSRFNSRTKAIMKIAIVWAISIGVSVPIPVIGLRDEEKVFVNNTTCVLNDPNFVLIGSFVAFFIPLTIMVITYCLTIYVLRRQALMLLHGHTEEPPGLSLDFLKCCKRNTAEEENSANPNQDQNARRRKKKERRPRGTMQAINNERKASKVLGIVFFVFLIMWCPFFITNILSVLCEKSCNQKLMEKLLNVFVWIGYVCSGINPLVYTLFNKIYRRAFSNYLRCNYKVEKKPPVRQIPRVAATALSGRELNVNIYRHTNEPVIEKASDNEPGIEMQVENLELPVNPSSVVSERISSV
Chain of Dopamine Transporter (Q01959 whole entry): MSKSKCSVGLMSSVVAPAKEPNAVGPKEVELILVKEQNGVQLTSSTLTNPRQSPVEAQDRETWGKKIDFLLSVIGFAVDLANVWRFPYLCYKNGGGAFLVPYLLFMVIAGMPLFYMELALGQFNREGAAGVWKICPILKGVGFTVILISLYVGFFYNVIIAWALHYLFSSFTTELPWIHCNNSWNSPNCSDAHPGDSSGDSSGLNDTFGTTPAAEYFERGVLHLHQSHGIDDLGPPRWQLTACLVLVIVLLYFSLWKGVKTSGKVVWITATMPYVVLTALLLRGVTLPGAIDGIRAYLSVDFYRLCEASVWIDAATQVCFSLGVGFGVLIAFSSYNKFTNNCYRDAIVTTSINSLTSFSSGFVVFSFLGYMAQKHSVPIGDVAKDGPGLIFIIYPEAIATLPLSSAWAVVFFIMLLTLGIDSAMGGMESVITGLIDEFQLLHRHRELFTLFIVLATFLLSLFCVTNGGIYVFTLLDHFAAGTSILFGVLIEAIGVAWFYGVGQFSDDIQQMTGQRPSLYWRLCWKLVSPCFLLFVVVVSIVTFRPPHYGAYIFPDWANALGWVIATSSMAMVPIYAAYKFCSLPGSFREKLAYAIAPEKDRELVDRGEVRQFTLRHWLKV

Q: With Cc1ccc2c(c1)Oc1sc(SC(C)C)cc1C(N1CCN(CC(C)(C)C(=O)O)CC1)=N2 [Example 1, 3-[4-(2-isopropylsulfanyl-8-methyl-thieno[2,3-b][1,5]benzoxazepin-4-yl)piperazin-1-yl]-2,2-dimethyl-propanoic acid] as the compound, how does the pKi [1] read?
A: 6.44

Q: And the “5-HT2A inverse agonism (in words)” value [2]?
A: inverse agonist of the 5-HT2A receptor

Q: And the pEC50 ([2]; recombinant human receptor, n=2, read-out: EC50, inhibition of intrinsic activity of the 5-HT2A receptor)?
A: 7.07

Q: What about the pKi (Dopamine Transporter) of the same compound?
A: < 6.06

Q: And the pKi (Dopamine D1)?
A: 5.58
